{"source": "patent US6309882A", "about": "“Antisense inhibition of replication protein a p70 subunit” (ISIS Pharmaceuticals, Inc., priority 1999, dated 2001)", "format_in_all_cases": "cell-based, human", "key": {"T24 cells": {"system": "T24 cells", "experiment": "Tumor cell survival, cell number by hemocytometer", "conditions": "T24, 400 nM, 72 hours", "procedure": "(§1) To determine the effects of ISIS 12790 on tumor cell survival, T24, A549, Mia Paca II, and SW480 cells were treated with either ISIS 12790 or ISIS 13706 (a 20-mer with identical nucleotide composition but containing 7 mismatches relative to the target) and surviving cells counted 72 hours later.\n(§2) For experiments where cell number was measured directly by hemocytometer, cells were plated in six well dishes 24 hr prior to the experiment and transfected at approximately 50-70% confluency with various phosphorothioate oligonucleotides at 400 nM, as described above. Following a single transfection, the cells were allowed to recover 72 hours. After 72 hr the cells were washed, trypsinized, and cell number was determined by hemocytometer. For each experiment, treatments were performed in triplicate wells. The number of cells corresponding to each well was determined twice.\n(§3) Statistical analysis of mRNA levels and cell survival data were performed using BMDP Statistical package, Version 7.0 (BMDP Statistical Software, Inc., Los Angeles, Calif.). Data were subjected to ANOVA and the results were expressed in terms of F-values, t-values, and significance. For cell survival data, analyses included repeated measurements with 3 between factors (drug, concentration, and position). For mRNA levels only the 3 between factors were considered. Global comparisons were performed with F-tests and pairwise comparisons with t-tests. In each case, since there was no interaction with position, results were pooled and analyzed with two between factors (drug and concentration). Treatment with ISIS 12790 was associated with decreased cell number in all four tumor cell lines (see Table 4). The decrease in cell number observed in T24 cells was 79%. The decrease observed in the other three cell lines was: A549, 98% decrease; Mia Paca II, 85% decrease; SW480, 81% decrease."}, "Mia Paca II cells": {"system": "Mia Paca II cells", "experiment": "Tumor cell survival, cell number by hemocytometer", "conditions": "400 nM, 72 hours", "procedure": "as §1, §2, §3"}, "A549 cells": {"system": "A549 cells", "experiment": "Tumor cell survival, cell number by hemocytometer", "conditions": "A549, 400 nM, 72 hours", "procedure": "as §1, §2, §3"}, "HeLa cells": {"system": "HeLa cells", "experiment": "HeLa cell survival, Sulforhodamine B staining", "conditions": "for % Cell Killing / % Cell Survival: SRB, three days", "text": "Cells were transfected with matched, mismatched, or non-allele specific anti-RPA70 (ISIS 12790) oligonucleotides as described above. Following transfection, the cells were allowed to recover either three days (HeLa cells) or 6 days (Mia Paca II cells). The number of cells remaining attached to the tissue culture dish was quantified by Sulforhodamine B (SRB) staining (FluoReporter Colorimetric Cell Protein Assay Kit, Molecular probes).\nTo determine the effect of variance-specific antisense oligonucleotides on cell survival, cells were treated with oligonucleotides and cell survival measured by Sulforhodamine B staining. […] At the maximum concentration of ISIS 12781, 400 nM, there was an 84% reduction of surviving cells. […] After treatment with 400 nM oligonucleotide, the amount of cells remaining with VAR 13085 was 3.1-fold higher than with ISIS 12781. […] The IC50 for the decrease was less than 100 nM. The IC50s for inhibition of HeLa cell survival correlated with the IC50s for RPA70 mRNA suppression by both ISIS 12781 and ISIS 12790 oligonucleotides."}, "RPA70 mRNA": {"system": "RPA70 mRNA", "experiment": "RPA70 mRNA expression in A549 cells, Northern blot", "procedure": "Antisense treatments were performed with phosphorothioate oligodeoxynucleotides. Cells were cultured in 6-well plates to 60-80% confluency for use in oligonucleotide treatments. Cells were washed once with OPTI-MEM™ (Life Technologies), pre-warmed to 37° C. Transfections were carried out in 1 ml OPTI-MEM™ containing 3 μg LIPOFECTIN™ (Life Technologies) per ml of Opti-MEM™ per 100 nM added oligonucleotide. OPTI-MEM™ containing the appropriate amount of LIPOFECTIN™ was added to the cells followed by addition of oligonucleotides from 1000×stocks. (For dose-response studies oligonucleotides were added from 20×stocks.) Cells were incubated for 5 h at 37° C. Following treatment, medium was removed and replaced with pre-warmed replete media (Bennett, C. F., et al., Mol. Pharm., 1992, 41, 1023-1033; Monia, B. P., et al., Nature Medicine, 1993, 2, 668-674).\nTarget mRNA levels were assessed by Northern blotting with target specific random primed [α-^32 P]dCTP-labeled cDNA probes, as described below. cDNAs for probes were obtained by specific RT-PCR of cellular RNAs.\nFor determination of mRNA levels by Northern blot, total RNA was prepared from cells 24 h after oligonucleotide addition using a SDS-lysis method (Peppel, K. and Baglioni, C., Biotechniques, 1990, 9, 711-713). Northern analysis was performed as described (Brown, T. and Mackey, K., in Current protocols in Molecular Biology (Ausubel, F. ed.), 1987, Vol. 1, pp. 4.9.1-4.912, Greene publishing, New York). To determine RPA70 mRNA expression RNA blots were probed using a random primed [α-^32 P]dCTP-labeled cDNA probe corresponding to a 562 nucleotide sequence (1519-2081) from human RPA70 (Erdile, L. F., et al., J. Biol. Chem., 1991, 266, 12090-12098). After transfer, membranes were prehybridized with Quik-Hyb solution (Stratagene, La Jolla, Calif.) for 1 h at 68° C. and then hybridized 1-4 hours with 12.5×10^6 cpm of cDNA probe and 2 μg salmon sperm DNA carrier in a total of 10 ml of hybridization solution. Following hybridization, membranes were washed twice at room temperature for 15 min in 2×SSC/0.1% SDS and then once at 60° C. for 30 min in 0.1×SSC/0.1% SDS.\nRNA on the blots was quantified by phosphorimaging on a Fuji FLA-2000. RPA70 mRNA levels are normalized to the level of RPA70 mRNA measured in cells treated with 400 nM control 20N-mer phosphorothioate oligonucleotide and expressed as percentage of control treated levels. Glyceraldehyde phosphate dehydrogenase (GAPDH) mRNA levels were probed using a random primed GAPDH cDNA generated by RT-PCR with human GAPDH primers (Stratagene, Inc., La Jolla, Calif.).\nTo assess the ability of these oligonucleotides to inhibit RPA70 expression, A549 cells were treated with oligonucleotide at 400 nM in the presence of LIPOFECTIN™, and the level of RPA70 mRNA was measured by Northern blot analysis (see Table 3). Most oligonucleotides reduced RPA70 mRNA levels by 50% to 94%. […] This oligonucleotide targets a non-variant region located in the 3'-UTR of RPA70 mRNA and is not variance-specific."}, "[1]": {"conditions": "400 nM oligonucleotide with LIPOFECTIN, RNA 24 h after addition"}}, "data": [{"substance": "ISIS 12790: phosphorothioate oligodeoxynucleotide TGGTCTGCAGTTAGGGTCAG, SEQ ID NO 15, 3'-UTR 2230-2249, non-allele specific (DNA, all phosphorothioate, methylation of C not given here)", "values": [{"measurement": "% Cell Killing", "setting": "T24 cells", "value": 79, "unit": "%"}, {"measurement": "% Cell Survival", "setting": "T24 cells", "value": 21, "unit": "%"}, {"measurement": "decrease in cell number", "setting": "T24 cells", "value": 79, "unit": "%"}, {"measurement": "decrease in cell number", "setting": "Mia Paca II cells", "value": 85, "unit": "%"}, {"measurement": "% Cell Killing", "setting": "A549 cells", "value": 98, "unit": "%"}, {"measurement": "% Cell Survival", "setting": "A549 cells", "value": 2, "unit": "%"}, {"measurement": "decrease in cell number", "setting": "A549 cells", "value": 98, "unit": "%"}, {"measurement": "effect on cell survival", "setting": "HeLa cells; HeLa cells", "value": "dose-dependent reduction in the number of surviving cells"}, {"measurement": "IC50", "setting": "HeLa cells; HeLa cells, read-out: IC50 for decrease in cell survival", "value": "< 100", "unit": "nM"}, {"measurement": "% Cell Killing", "setting": "HeLa cells; HeLa, 50 nM", "value": 77, "unit": "%"}, {"measurement": "% Cell Survival", "setting": "HeLa cells; HeLa, 50 nM", "value": 23, "unit": "%"}, {"measurement": "% Cell Killing", "setting": "HeLa cells; HeLa, 100 nM", "value": 66, "unit": "%"}, {"measurement": "% Cell Survival", "setting": "HeLa cells; HeLa, 100 nM", "value": 34, "unit": "%"}, {"measurement": "% Cell Killing", "setting": "HeLa cells; HeLa, 200 nM", "value": 89, "unit": "%"}, {"measurement": "% Cell Survival", "setting": "HeLa cells; HeLa, 200 nM", "value": 11, "unit": "%"}, {"measurement": "reduction of surviving cells", "setting": "HeLa cells; HeLa, 400 nM", "value": 90, "unit": "%"}, {"measurement": "% Cell Killing", "setting": "HeLa cells; HeLa, 400 nM", "value": 89, "unit": "%"}, {"measurement": "% Cell Survival", "setting": "HeLa cells; HeLa, 400 nM", "value": 11, "unit": "%"}, {"measurement": "reduction in RPA70 mRNA levels", "setting": "RPA70 mRNA; 400 nM", "value": 94, "unit": "%"}, {"measurement": "% mRNA EXPRESSION", "setting": "RPA70 mRNA; [1]", "value": 6, "unit": "%"}, {"measurement": "% mRNA INHIBITION", "setting": "RPA70 mRNA; [1]", "value": 94, "unit": "%"}]}]}
